From US11174232B2, “Substituted heterocyclyl derivatives as CDK inhibitors” (Aurigene Discovery Technologies Limited, priority 2015, dated 2021)

Target: CDK7/CycH/MNAT1 (Homo sapiens (Human), UniProt P50613)
Assay: Biochemical Assay for CDK7 (TR-FRET kinase assay)
Conditions: 60 min pre-incubation with kinase, 1 mM ATP
Procedure: Biochemical Assay for CDK7:
The ability of compounds to inhibit CDK7 kinase activity was tested in a TR-FRET assay using 5 nM of CDK7/CycH/MNAT1 obtained from Invitrogen, USA. Test compounds were pre-incubated with the kinase at room temperature for 60 min. After the incubation, substrate mix [100 nM Ultra-light MBP (Perkin Elmer, USA) and 1 mM ATP (Sigma)] was added. The above reaction was stopped by the addition of 40 mM EDTA after 60 minutes of kinase reaction. 1 nM Eu-labelled antiphospho-MBP antibody [Perkin Elmer, USA] was added, mixed well and the fluorescence emission at 615 nm and 665 nm [excitation at 340 nm] was measured. The final DMSO concentration in the assay was 1%. For IC50 determination, appropriate concentrations were made by ⅓^rd serial dilutions of 10 mM DMSO stock solution of test compound. All the fluorescence measurements were made in a Victor 3 Multilabel Counter [Perkin Elmer, USA]. The IC50 was determined by fitting the dose response data to sigmoidal curve fitting equation using GraphPad Prism software V5. To identify compounds that inhibit CDK7 irreversibly, time depended inhibition studies were carried by pre-incubating compound with the enzyme at three time points (20, 60 and 180 min) and carrying out assay as described above.
The compounds were screened by the above mentioned assay procedure.

CDK7/CycH/MNAT1, sequence (P50613 whole entry): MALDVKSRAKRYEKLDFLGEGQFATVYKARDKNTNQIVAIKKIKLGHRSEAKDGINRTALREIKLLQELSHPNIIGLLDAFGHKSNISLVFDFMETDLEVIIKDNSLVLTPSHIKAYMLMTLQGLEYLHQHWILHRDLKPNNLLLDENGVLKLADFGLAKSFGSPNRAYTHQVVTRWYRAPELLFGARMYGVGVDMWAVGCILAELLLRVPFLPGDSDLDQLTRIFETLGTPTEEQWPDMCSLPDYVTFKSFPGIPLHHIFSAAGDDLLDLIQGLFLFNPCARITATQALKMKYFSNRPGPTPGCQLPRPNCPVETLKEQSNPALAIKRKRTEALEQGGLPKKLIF
CDK7/CycH/MNAT1, sequence (P51946 whole entry partner): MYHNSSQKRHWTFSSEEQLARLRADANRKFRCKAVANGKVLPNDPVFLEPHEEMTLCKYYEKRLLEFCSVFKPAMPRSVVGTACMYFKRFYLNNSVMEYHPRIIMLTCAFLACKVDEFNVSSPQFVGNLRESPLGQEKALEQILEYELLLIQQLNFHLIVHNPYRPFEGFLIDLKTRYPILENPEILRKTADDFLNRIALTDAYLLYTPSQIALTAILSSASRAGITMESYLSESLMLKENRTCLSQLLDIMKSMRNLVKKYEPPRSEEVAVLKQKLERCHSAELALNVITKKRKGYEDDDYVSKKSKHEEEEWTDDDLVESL
CDK7/CycH/MNAT1, sequence (P51948 whole entry partner): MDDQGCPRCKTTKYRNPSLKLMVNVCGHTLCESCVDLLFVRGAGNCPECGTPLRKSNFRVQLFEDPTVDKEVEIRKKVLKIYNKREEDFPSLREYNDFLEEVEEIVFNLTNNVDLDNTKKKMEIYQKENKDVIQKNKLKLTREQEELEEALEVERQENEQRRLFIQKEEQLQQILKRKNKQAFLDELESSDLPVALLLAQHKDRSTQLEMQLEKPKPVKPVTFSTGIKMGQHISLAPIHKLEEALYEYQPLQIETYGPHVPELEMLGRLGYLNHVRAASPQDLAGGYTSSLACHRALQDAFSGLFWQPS

| Structure (SMILES) | inhibition at 10 µM (10 μM compound) | IC50 | % inhibition @ 10 μM (10 μM compound) |
| --- | --- | --- | --- |
| CC(C(=O)Nc1cc(C2CC2)[nH]n1)c1cccc(C2=CCN(C(=O)/C=C/CN(C)C)CC2)c1 (centres unmarked) [Compound 84, (E)-N-(5-cyclopropyl-1H-pyrazol-3-yl)-2-(3-(1-(4-(dimethylamino)but-2-enoyl)-1,2,3,6-tetrahydropyridin-4-yl)phenyl)propanamide] | 88% | > 100 nM | – |
| CC(C(=O)Nc1cc(C2CC2)[nH]n1)c1cccc(-c2cnc(NC(=O)/C=C/CN3CCOCC3)c(F)c2)c1 (centres unmarked) [Compound 63, (E)-N-(5-(3-(1-((5-cyclopropyl-1H-pyrazol-3-yl)amino)-1-oxopropan-2-yl)phenyl)-3-fluoropyridin-2-yl)-4-morpholinobut-2-enamide] | 98% | 25 to 100 nM | – |
| C[C@H](C(=O)Nc1cc(C2CC2)[nH]n1)c1cccc(-c2ccc(NC(=O)/C=C/CN3CCOCC3)nc2)c1 [Compound 93, (S,E)-N-(5-(3-(1-((5-cyclopropyl-1H-pyrazol-3-yl)amino)-1-oxopropan-2-yl)phenyl)pyridin-2-yl)-4-morpholinobut-2-enamide] | 100% | < 25 nM | – |
| CN(C)C/C=C/C(=O)Nc1ccc(C(=O)Nc2cccc(Nc3n[nH]c4ccccc34)c2)cc1 [Compound 89, (E)-N-(3-((1H-indazol-3-yl)amino)phenyl)-4-(4-(dimethylamino)but-2-enamido)benzamide] | 45% | – | – |
| CC(C(=O)Nc1cc(C2CC2)[nH]n1)c1cccc(-c2ccc(NC(=O)/C=C/CN(C)C)nc2)c1 (centres unmarked) [Compound 42, (E)-N-(5-(3-(1-((5-cyclopropyl-1H-pyrazol-3-yl)amino)-1-oxopropan-2-yl)phenyl)pyridin-2-yl)-4-(dimethylamino)but-2-enamide] | 98% | < 25 nM | – |
| C=CC(=O)Nc1ccc(-c2cccc(C(C)C(=O)Nc3cc(CC)[nH]n3)c2)cc1 (centres unmarked) [Compound 87, N-(3′-(1-((5-ethyl-1H-pyrazol-3-yl)amino)-1-oxopropan-2-yl)-[1,1′-biphenyl]-4-yl)acrylamide] | 89% | > 100 nM | – |
| CC(C(=O)Nc1cc(C2CC2)[nH]n1)c1cccc(-c2ccc(NC(=O)/C=C/CN(C)C)c(F)c2)c1 (centres unmarked) [Compound 14, (E)-N-(3′-(1-((5-cyclopropyl-1H-pyrazol-3-yl)amino)-1-oxopropan-2-yl)-3-fluoro-[1,1′-biphenyl]-4-yl)-4-(dimethylamino)but-2-enamide] | 95% | > 100 nM | – |
| C=CC(=O)Nc1ccc(-c2cccc(C(C(=O)Nc3cc(C4CC4)[nH]n3)C(C)C)c2)cc1F (centres unmarked) [Compound 25, 2-(4′-acrylamido-3′-fluoro-[1,1′-biphenyl]-3-yl)-N-(5-cyclopropyl-1H-pyrazol-3-yl)-3-methylbutanamide] | 97% | 25 to 100 nM | – |
| O=C(/C=C/CN1CCCC1)Nc1ccc(-c2cccc(C3(C(=O)Nc4cc(C5CC5)[nH]n4)CC3)c2)cn1 [Compound 94, (E)-N-(5-cyclopropyl-1H-pyrazol-3-yl)-1-(3-(6-(4-(pyrrolidin-1-yl)but-2-enamido)pyridin-3-yl)phenyl)cyclopropane-1-carboxamide] | 85% | > 100 nM | – |
| C=CC(=O)Nc1cncc(-c2cccc(C(C)C(=O)Nc3cc(C4CC4)[nH]n3)c2)n1 (centres unmarked) [Compound 79, N-(6-(3-(1-((5-cyclopropyl-1H-pyrazol-3-yl)amino)-1-oxopropan-2-yl)phenyl)pyrazin-2-yl)acrylamide] | 102% | < 25 nM | – |
| CCC(C(=O)Nc1cc(C2CC2)[nH]n1)c1cccc(-c2ccc(NC(=O)/C=C/CN(C)C)cc2)c1 (centres unmarked) [Compound 13, (E)-N-(3′-(1-((5-cyclopropyl-1H-pyrazol-3-yl)amino)-1-oxobutan-2-yl)-[1,1′-biphenyl]-4-yl)-4-(dimethylamino)but-2-enamide] | 97% | 25 to 100 nM | – |
| CC(C(=O)Nc1cc(C2CC2)[nH]n1)c1cccc(-c2ccc(NC(=O)/C=C/CN3CC[C@@H](F)C3)nc2)c1 (stereo partly drawn) [Compound 49, (E)-N-(5-(3-(1-((5-cyclopropyl-1H-pyrazol-3-yl)amino)-1-oxopropan-2-yl)phenyl)pyridin-2-yl)-4-((R)-3-fluoropyrrolidin-1-yl)but-2-enamide] | 89% | < 25 nM | – |
| CN(C)C/C=C/C(=O)Nc1ccc(-c2cccc(CC(=O)Nc3cc(C4CC4)[nH]n3)c2)cc1 [Compound 7, (E)-N-(3′-(2-((5-cyclopropyl-1H-pyrazol-3-yl)amino)-2-oxoethyl)-[1,1′-biphenyl]-4-yl)-4-(dimethylamino)but-2-enamide] | 84% | > 100 nM | – |
| CCc1cc(NC(=O)C(C)c2cccc(-c3ccc(NC(=O)/C=C/CN(C)C)cc3)c2)n[nH]1 (centres unmarked) [Compound 8, (E)-4-(dimethylamino)-N-(3′-(1-((5-ethyl-1H-pyrazol-3-yl)amino)-1-oxopropan-2-yl)-[1,1′-biphenyl]-4-yl)but-2-enamide] | 92% | > 100 nM | – |
| CC(C(=O)Nc1cc(C2CC2)[nH]n1)c1cccc(-c2cccc(NC(=O)/C=C/CN3CCOCC3)c2)c1 (centres unmarked) [Compound 61, (E)-N-(3′-(1-((5-cyclopropyl-1H-pyrazol-3-yl)amino)-1-oxopropan-2-yl)-[1,1′-biphenyl]-3-yl)-4-morpholinobut-2-enamide] | 92% | > 100 nM | – |
| CC(C(=O)Nc1cc(C2CC2)[nH]n1)c1cccc(-c2ccc(NC(=O)/C=C/CN3CCOCC3)c(F)n2)c1 (centres unmarked) [Compound 58, (E)-N-(6-(3-(1-((5-cyclopropyl-1H-pyrazol-3-yl)amino)-1-oxopropan-2-yl)phenyl)-2-fluoropyridin-3-yl)-4-morpholinobut-2-enamide] | 90% | > 100 nM | – |
| CC(C(=O)Nc1cc(C(C)(C)C)[nH]n1)c1cccc(-c2ccc(NC(=O)/C=C/CN(C)C)cc2)c1 (centres unmarked) [Compound 9, (E)-N-(3′-(1-((5-(tert-butyl)-1H-pyrazol-3-yl)amino)-1-oxopropan-2-yl)-[1,1′-biphenyl]-4-yl)-4-(dimethylamino)but-2-enamide] | 60% | > 100 nM | – |
| CC(C(=O)Nc1cc(C2CC2)[nH]n1)c1cccc(-c2cncc(NC(=O)/C=C/CN3CCOCC3)c2)c1 (centres unmarked) [Compound 60, (E)-N-(5-(3-(1-((5-cyclopropyl-1H-pyrazol-3-yl)amino)-1-oxopropan-2-yl)phenyl)pyridin-3-yl)-4-morpholinobut-2-enamide] | 99% | 25 to 100 nM | – |
| COC[C@@H]1CCCN1C/C=C/C(=O)Nc1ccc(-c2cccc(C(C)C(=O)Nc3cc(C4CC4)[nH]n3)c2)cn1 (single isomer, unassigned) [Compound 72] | – | < 25 nM | 98% |
| C=CC(=O)Nc1ccc(-c2cccc(C(C)C(=O)Nc3cc(C4CC4)[nH]n3)c2)cc1F (centres unmarked) [Compound 19, N-(3′-(1-((5-cyclopropyl-1H-pyrazol-3-yl)amino)-1-oxopropan-2-yl)-3-fluoro-[1,1′-biphenyl]-4-yl)acrylamide] | 97% | 25 to 100 nM | – |
| CC(C)C(C(=O)Nc1cc(C2CC2)[nH]n1)c1cccc(-c2ccc(NC(=O)/C=C/CN3CCOCC3)nc2)c1 (centres unmarked) [Compound 44, (E)-N-(5-(3-(1-((5-cyclopropyl-1H-pyrazol-3-yl)amino)-3-methyl-1-oxobutan-2-yl)phenyl)pyridin-2-yl)-4-morpholinobut-2-enamide] | 99% | < 25 nM | – |
